Test results taken from publication PMC5488252, “Specificity Effects of Amino Acid Substitutions in Promiscuous Hydrolases: Context‐Dependence of Catalytic Residue Contributions to Local Fitness Landscapes in Nearby Sequence Space” (Chembiochem, 2017).
Where a name gives a salt, the structure may show the parent alone.

Tests used:
[1] = system: AkAS; assay type: biochemical; settings: 30 °C
[2] = system: T1, SaAS; test: 4-nitrophenolate release at […] nm; assay type: biochemical; settings: 30 °C; Bis-Tris propane or SID buffer
T1 construct: pASK-IBA5plus (Strep-tag), E. coli TOP10; source organism not spelt out in this text

O=[N+]([O-])c1ccc(OP(=O)(O)O)cc1 [compound 1, phosphate monoester 1]
Km [1]: 17 mM

O=[N+]([O-])c1ccc(OS(=O)(=O)O)cc1 [compound 4, sulfate monoester 4]
Km [2]: 0.24 mM
